Reference: patent US20150353626A1, “APOLIPOPROTEIN A-I DERIVED PEPTIDES FOR TREATMENT OF HYPERGLYCAEMIA” (priority 2013, published 2015)

How the values were obtained:
Format in all cases: cell-based
L6 myotubes = assay: Glucose uptake in L6 myotubes (2-[3H]-deoxy-D-glucose)
Procedure: L6 myoblasts (ATCC #CRL-1458) were grown in α-MEM (Invitrogen) supplemented with 10% FBS (Sigma) and 1% antibiotic/antimycotic (Penicillin, streptomycin, amphotericin B; Invitrogen). Differentiation to myotubes was achieved by switching from growth media to 2% FBS a-MEM for 6-7 or 6-12 days. Cells were maintained at 37° C. and 5% CO2.
Prior to stimulation (or treatment) cells were starved for 2 hours in serum-free a-MEM and all subsequent treatments, which were performed in triplicate and included cytochalasin B (Sigma) as a measure of cell associated non-specific radioactivity, were performed in uptake buffer (140 mmol/l NaCl, 20 mmol/l HEPES, 5 mmol/l KCl, 2.5 mmol/l MgSO4, 1 mmol/l CaCl2, pH 7.4). After stimulation, treatments were replaced with 10 μmol/l 2-deoxy-D-glucose (Sigma), 10 μmol/l 2-[3H]-deoxy-D-glucose (Perkin Elmer) in uptake buffer for 15 mins at room temperature. Cells were then washed twice with ice cold PBS and lysed with 1 mol/l NaOH on ice. Lysates were collected and radioactivity quantified by scintillation counting.
In order to investigate the effect of discodial HDL (rHDL) on GLUT4 translocation and glucose uptake, we produced recombinant human apoA-I and reconstituted HDL needed for cell incubations. L6 myotubes were incubated with 50 μg/ml (1.6 μmol/l) apoA-I for 1 hour followed by a glucose uptake assay as described above. […] Next, L6 myotubes were treated by incubation with 50 μg/ml discodial rHDL (expressed as total concentration of apoA-I in rHDL, given 2 apoA-I molecules per particle) for 1 hour. […] This experiment was thereafter repeated in more controlled manner including cell number and quality (cells were similarly treated during differentiation from myoblasts to multinuclear myotubes, with respect to the time between splitting cells, cell density, passage of cells used.) (FIG. 7c).
The relative effect of specific regions of apoA-I to increase glucose uptake was investigated using truncated protein fragments corresponding to residues 1-189 (N-terminal/central domain), 44-189 (central domain), 44-243 (central/C-terminal domain) and 190-243 (C-terminal domain) of full-length apoA-I (FIG. 4a). The treatments with incubation of truncated protein fragments were performed as described above for treatment of L6 myotubes with full-length apoA-I and followed by a glucose uptake assay as described above.
To test for the contribution of the constituent phospholipid to rHDL-induced glucose uptake in L6 myotubes, rHDL made with DMPC was also produced and compared to 100 nm DMPC vesicles containing no apoA-I protein. Stable 100 nm diameter vesicles can be synthesized with DMPC in the absence of apoA-I and was therefore used as a phospholipid control. The effect on the glucose uptake was tested as described above. […] To also test for the contribution of the constituent POPC phospholipid to rHDL-induced glucose uptake, rHDL made with POPC was compared with 100 nm POPC vesicles containing no apoA-I protein.

rat adipocytes = assay: Glucose uptake in isolated rat adipocytes; conditions: insulin 100 nmol/l, 190-243 fragment 30 μg/ml, FIG. 9b
Procedure: Adipose cells were prepared as previously described (Rodbell (1964) J Biol Chem. 239: 375-80). In brief, epidydymal fat pads were minced and digested in Krebs-Ringer-bicarbonate-HEPES (KRBH) buffer, pH 7.4, containing 10 mM sodium bicarbonate, 30 mM HEPES, 200 nM adenosine, 1% bovine serum albumin (BSA) with 1 mg/ml collagenase. After digestion, the cells were filtered through nylon mesh (250 μm) and washed with KRBH-buffer.
Isolated rat adipocytes were treated for 60 min with insulin (100 nmol/l), 190-243 polypeptide fragment (having the amino acid sequence consisting of SEQ ID NO:1) (30 μg/ml) or 1-243 human apoA-I protein (150 μg/ml) followed by glucose uptake measurement by addition of UC14 tracer glucose (Perkin Elmer) (30 min). The uptake was terminated by centrifugation through dinonyl phtalate oil. Incubation with Cytochalasin B was used to subtract unspecific background binding. Amount of glucose was detected as count radioactivity measured by Beta CounterThe amount of glucose transported was measured using an isotope labeled UC14-assay.

GLUT4 = GLUT4 translocation to plasma membrane in primary FDB muscle fibers (HA immunofluorescence, ex vivo); conditions: FDB fibers of HA-GLUT4-GFP mouse, 60 minutes, insulin 100 nmol/l, FIGS. 1d/7d, 4c/9a
Procedure: To support the glucose uptake observations described in Example 2, the ability of rHDL and the 190-243 polypeptide fragment (SEQ ID NO:1) to increase the amount of GLUT4 in the plasma membrane was assessed by immunofluorescence microscopy of intact primary skeletal flexor digitorum brevis (FDB) muscle fibers, isolated from a transgenic mouse model with muscle-specific HA-GLUT4-GFP expression (Lizunov et al. (2012) Am J Physiol Endocrinol Metab 302: E950-960). The HA epitope present on the first exofacial loop of the HA-GLUT4-GFP construct allows detection of GLUT4 inserted into the plasma membrane. Intact FDB fibers were incubated ex vivo with rHDL followed by fixation and HA antibody labeling of non-permeabilized cells as described below.
Two to five transgenic mice (C57/Bl6; 10-14 weeks) with muscle specific HA-GLUT4-GFP expression (gift from S. Cushman) (Lizunov et al. (2012) Am J Physiol Endocrinol Metab 302: E950-960), were used for each condition. The animals were euthanized and flexor digitorum brevis (FDB) muscles dissected out and incubated with oxygenated Krebs-Henseleit carbonate Hepes (KRBH) buffer (6 mmol/l KCl, 1 mmol/l Na2HPO4, 0.2 mmol/l NaHPO4, 1.4 mmol/l MgSO4, 1 mmol/l CaCl2, 128 mmol/l NaCl, 10 mmol/l HEPES pH 7.4) with 0.5% (w/v) bovine serum albumin. […]

| Substance | glucose uptake, fold change versus control (L6 myotubes; apoA-I fragment, 60 minutes, FIGS. 4b and 8b) | glucose uptake in adipocytes (in words) (rat adipocytes) | GLUT4 in the sarcolemma plasma membrane (HA signal, in words) (GLUT4) | glucose uptake over basal/Control, repeated experiment (L6 myotubes; 2 μmol/l (60 μg/ml) POPC rHDL or 100 nmol/l insulin, 60 minutes, FIG. 7c) | glucose uptake over basal (L6 myotubes; 50 μg/ml rHDL (as apoA-I) or 100 nmol/l insulin, 1 hour, FIG. 1c, rHDL p=0.095) | increased glucose uptake (L6 myotubes; 2 h serum starved, 50 μg/ml (1.6 μmol/l) apoA-I or 100 nmol/l insulin, 1 hour, FIG. 1b) |
| --- | --- | --- | --- | --- | --- | --- |
| 190-243 polypeptide fragment: polypeptide fragment consisting of amino acids 190-243 of the full-length human apoA-I protein, C-terminal domain, 54-mer, recombinant (AEYHAKATEHLSTLSEKAKPALEDLRQGLLPVLESFKVSFLSALEEYTKKLNTQ; listed as Homo Sapiens) | 1.77±0.23 fold | significantly induced | greater membrane levels of GLUT4 protein | – | – | – |
| insulin | – | significantly induced | induced translocation of GLUT4 into the sarcolemma plasma membrane | 2.4±1.0 fold | 2.4±1.0 fold | 2 fold |
